Measurements from patent US20220143148A1, “COMPOSITIONS AND METHODS FOR MODULATING CGRP SIGNALING TO REGULATE INTESTINAL INNATE LYMPHOID CELLS” (The Broad Institute, Inc., priority 2019, published 2022).

Tests used:
KLRG1+ ILC2s [1] = assay: In vitro proliferation assay (CellTrace Violet, flow cytometry); type: cell-based, mouse; settings: IL-25 with α-CGRP plus adenylate cyclase inhibitor
Experimental: (§1) Flow cytometry and cell sorting. Cells were washed and suspended in MACS buffer (pH 7.4; PBS plus 2% FCS and 2 mM EDTA). Nonspecific antibody binding was blocked with CD16/CD32 (2.4G2) antibody for 15 min on ice. Cells were then stained with antibody cocktails for 30 min at 4° C. Lineage-positive cells were excluded for analyzing ILCs by staining for CD3ε (145-2C11), CD5 (53-7.3), CD19 (6D5), CD11b (M1/70), CD8 (53-6.7), CD11c (N418), Gr-1 (RB6-8C5), TCRγδ (eBioGL3 (GL-3, GL3)) and TCRβ (H57-597). To analyze mast cells, lineage-positive cells were excluded by staining for CD3ε, CD5, CD19, CD11c and SiglecF (E50-2440). For surface staining, antibodies for KLRG1 (2F1), CD45 (30-F11), CD127 (A7R34), CCR6 (29-2L17), NKp46 (29A1.4), CD90.2 (53-2.1), FcεRI (Mar-1), IgD (11-26c.2a) and ST2 (DJ8) were used. For intracellular staining, cells were fixed and permeabilized using the Foxp3 transcription factor staining buffer set, followed by staining with anti-GATA-3 (TWAJ) or anti-RORγt (B2D) antibodies. Dead cells were excluded with 7-AAD or Fixable Viability Dye eFluor 780. Flow cytometry was performed on Cytoflex (Beckman Coulter) and analyzed with FlowJo software. Sorting was performed with the SH800S Cell Sorter (Sony Biotechnology).
ILC2 culture. […]

TDAG8 = molecular target: T1, TDAG8 (Rattus norvegicus, UniProt A0A8I6AHC6); settings: in vivo; cited from earlier work
T1 construct: host or cells: rat, in vivo (endogenous receptor)

TDAG8 (GPR65) = settings: cited from earlier work
KLRG1+ ILC2s [2] = assay: IL-25-induced in vivo ILC2 activation model; set-up: species or system mouse; settings: IL-25 administration alone
Excerpt: Intraperitoneal administration of α-CGRP impaired IL-25-induced expansion of KLRG1^+ ILC2s (FIGS. 5B and 12A), consistent with the in vitro results. Recent work has shown that intestinal KLRG1^+ ILC2s can migrate to mesenteric lymph nodes (mLNs) and other tissues during inflammation via sphingosine 1-phosphate (S1P)-mediated chemotaxis (Huang et al., 2018). To determine whether α-CGRP primarily impacts intestinal or mLN ILC2s, Applicants relied on the fact that intestinal GATA3^+ ILC2s are generally phenotypically KLRG1^+ST2^− (data not shown), whereas mLN ILC2s are mainly ST2^+ at steady state (FIG. 5C). IL-25 administration increased the frequency of both KLRG1^+ST2^− inflammatory ILC2s and ST2^+ ILC2s in mLNs (FIGS. 5C-E and 12B). […] Thus, α-CGRP preferentially regulates the response of intestinal KLRG1^+ST2^− ILC2s. […] Taken together, α-CGRP antagonized expansion of intestinal KLRG1^+ ILC2s in two different type 2 inflammatory models.
To activate ILC2s in vivo, 200 ng of IL-25 was intraperitoneally injected into 7-10 weeks old mice daily for two days. 1 μg α-CGRP was injected together as noted.
as §1
Immunofluorescence staining and imaging. The small intestines were fixed in 2% PFA, embedded in O.C.T. Compound and sliced into 10 μm by frozen section. The slides were blocked with 0.1% Triton X-100, 2% FCS and donkey serum. […] The images were analyzed with ImageJ.

intestinal KLRG1+ ILC2s = assay: Bulk RNA-seq of intestinal KLRG1+ ILC2s stimulated in vitro; type: cell-based, mouse; settings: IL-25 alone in vitro
Excerpt: To determine if α-CGRP can directly trigger signaling in ILC2s and impact their transcriptional states under inflammatory conditions, Applicants performed bulk RNA-seq of KLRG1^+ ILC2s isolated from the small intestine and stimulated in vitro with IL-25 alone or together with α-CGRP. […] Thus, α-CGRP inhibits IL-25-induced proliferation and activation of intestinal KLRG1+ILC2s.
The presence at homeostasis of α-CGRP receptors on ILC2s and α-CGRP's expression on ChAT^+ intestinal neurons led Applicants to hypothesize that it has an effect on ILC2s during homeostasis. To test this hypothesis, Applicants next measured the expression profiles of intestinal KLRG1^+ ILC2s stimulated in vitro by α-CGRP alone, and identified genes differentially expressed under this signal (FIG. 6D, Methods).
ILC2 culture. Sort-purified intestinal KLRG1^+ ILC2s were incubated in RPMI supplemented with 10% FCS, 10 mM Hepes, 1 mM sodium pyruvate, 10% FBS, 80 μm 2-mercaptoethanol, 2 mM glutamine, 100 U/ml penicillin, […] streptomycin, 100 ng/ml IL-2 and 100 ng/ml IL-7 in 96-well round bottom plate at 37° C. and 5% CO2. If indicated, the culture was supplemented with 100 ng/ml IL-25. For the in vitro proliferation assay, cells from different mice were pooled and labeled with CellTrace Violet, and then cultured at 1,000-1,500 cells per well with 10 μg/ml α-CGRP for 60 hours. When indicated, 10 μM forskolin or 1 μM SQ 22, 536 in DMSO was supplied and cells were cultured for 40 hours. For bulk RNA-seq, cells from individual mice were stimulated at 200 cells per well with 0.4 μg/ml α-CGRP for 3 hours. For bulk ATAC-seq, cells were stimulated with 0.4 μg/ml α-CGRP for 2 hours.
Bulk RNA-seq. 200 ILC2s from each condition were lysed in 10 ul TCL buffer plus 0.5% 2-Mercaptoethanol. Libraries were processed with SMART-Seq2 (Picelli et al., 2013) with at least three replicates per condition, and paired-end sequenced (75 bp×2) with a […] Nextseq 500 high output V2 kit.
Reads were aligned to the mouse reference genome (NCBI 38, mm10) using Bowtie (Langmead et al., 2009) with default parameters, and expression abundances were estimated using RSEM software (Li and Dewey, 2011). The differential gene expression analysis was performed with edgeR (Robinson et al., 2010) with default parameters.

T1 sequence (A0A8I6AHC6 1-337): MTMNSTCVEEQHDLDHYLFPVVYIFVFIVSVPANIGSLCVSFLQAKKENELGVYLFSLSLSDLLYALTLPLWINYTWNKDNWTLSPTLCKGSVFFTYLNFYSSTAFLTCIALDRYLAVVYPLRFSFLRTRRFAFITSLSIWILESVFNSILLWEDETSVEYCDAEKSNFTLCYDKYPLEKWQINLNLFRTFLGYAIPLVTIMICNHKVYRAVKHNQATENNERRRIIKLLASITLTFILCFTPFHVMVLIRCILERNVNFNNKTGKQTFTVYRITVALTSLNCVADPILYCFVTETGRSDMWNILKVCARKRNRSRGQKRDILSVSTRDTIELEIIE

In the case of `Nc1ncnc2c1ncn2C1CCCO1` (stereo not drawn) [SQ22, 536, reference compound], the “α-CGRP inhibition of ILC2 proliferation” value (KLRG1+ ILC2s [1]) is reported as “partially rescues”.

In the case of `CN1N=C(SCc2ccc(Cl)cc2Cl)Sc2c1cnn(C)c2=O` [BTB09089, 3-[(2,4-dichlorobenzyl)thio]-1,6-dimethyl-5,6-dihydro-1H-pyridazino[4,5-e][1,3,4]thiadiazin-5-one], the “efficacy in ischemic stroke murine disease model” value (TDAG8) is listed as “in vivo efficacy” and the “TDAG8 activation in vitro” value (TDAG8 (GPR65)) is listed as “activate”.

B1: IL-25: cytokine used to activate ILC2s in vitro and in vivo (protein, UniProt Q8VHH8 17-169, looked up)
Interleukin-25: VSLRIQEGCSHLPSCCPSKEQEPPEEWLKWSSASVSPPEPLSHTHHAESCRASKDGPLNSRAISPWSYELDRDLNRVPQDLYHARCLCPHCVSLQTGSHMDPLGNSVPLYHNQTVFYRRPCHGEEGTHRRYCLERRLYRVSLACVCVRPRVMA
For B1, the “frequency of KLRG1+ST2− inflammatory ILC2s in mLNs” value (KLRG1+ ILC2s [2]) was “increased”, the “frequency of ST2+ ILC2s in mLNs” value (KLRG1+ ILC2s [2]) was “increased” and the “activation phenotype (expression of type 2 cytokines Il13, Il5 and mitotic genes such as Myc)” value (intestinal KLRG1+ ILC2s) was “induced the expected activation phenotype”.
